Data reported in patent publication US9493487B2, “3-(1H-imidazo[4,5-C]pyridin-2-YL)-1H-pyrazolo[3,4-B]pyridine and therapeutic uses thereof” (Samumed, LLC, priority 2014, dated 2016).

What was measured:
[1] = tested on: Wnt activity (Sp5-Luc reporter, SW480 colon carcinoma cells); test: Sp5-Luc Wnt reporter gene assay in SW480 colon carcinoma cells; format: cell-based; settings: Homo sapiens; SW480 cells stably expressing Sp5-Luc reporter; 42 h incubation; BrightGlo luminescence normalized to DMSO
Summary of the method: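 IC50 values come from variable-slope four-parameter fits of luciferase signal normalized to DMSO wells. Stable Sp5-Luc reporter SW480 colon carcinoma cells were exposed to compounds in a 3-fold dilution series (source plates from 10 mM stock) for forty-two hours at 37 °C.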

[2] = tested on: primary human fibroblasts derived from IPF patients (LL29 cells); test: Inhibition of TGF-β1-induced fibrosis (αSMA staining) in primary human fibroblasts from IPF patients; format: cell-based; settings: Fibroblast, 96 h, TGF-β1 20 ng/mL, 4 days, 11-point dose-response 10 μM to 1.87 nM
Source text: The above synthesized compounds were screened using primary human fibroblasts (derived from IPF patients) treated with TGF-β1 to determine their ability to inhibit the fibrotic process.
Primary human fibroblasts derived from IPF patients (LL29 cells) [^1Xiaoqiu Liu, et. al., “Fibrotic Lung Fibroblasts Show Blunted Inhibition by cAMP Due to Deficient cAMP Response Element-Binding Protein Phosphorylation”, Journal of Pharmacology and Experimental Therapeutics (2005), 315(2), 678-687; ^2Watts, K. L., et. al., “RhoA signaling modulates cyclin D1 expression in human lung fibroblasts; implications for idiopathic pulmonary fibrosis”, Respiratory Research (2006), 7(1), 88] were obtained from American Type Culture Collection (ATCC) and expanded in F12 medium supplemented with 15% Fetal Bovine Serum and Penicillin/Streptomycin.
Each compound was dissolved in DMSO as a 10 mM stock and used to prepare compound source plates. Serial dilution (1:2, 11-point dose-response curves from 10 μM to 1.87 nM) and compound transfer was performed using the ECHO 550 (Labcyte, Sunnyvale, Calif.) into 384-well clear bottom assay plates (Greiner Bio-One) with appropriate DMSO backfill for a final DMSO concentration of 0.1%. LL29 cells were plated at 1,500 cells/well in 80 μl/well F12 medium supplemented with 1% Fetal Bovine Serum. One hour after addition of the cells, TGF-β1 (Peprotech; 20 ng/mL) was added to the plates to induce fibrosis (ref. 1 and 2 above). Wells treated with TGF-β1 and containing DMSO were used as controls. Cells were incubated at 37° C. and 5% CO2 for 4 days. Following incubation for 4 days, SYTOX green nucleic acid stain (Life Technologies [Thermo Fisher Scientific]) was added to the wells at a final concentration of 1 uM and incubated at room temperature for 30 min. Cells were then fixed using 4% formaldehyde (Electron Microscopy Sciences), washed 3 times with PBS followed by blocking and permeabilization using 3% Bovine Serum Albumin (BSA; Sigma) and 0.3% Triton X-100 (Sigma) in PBS. Cells were then stained with antibody specific to α-smooth muscle actin (αSMA; Abcam) (ref 1 and 2 above) in 3% Bovine Serum Albumin (BSA; Sigma) and 0.3% Triton X-100 (Sigma) in PBS, and incubated overnight at 4° C. Cells were then washed 3 times with PBS, followed by incubation with Alexa Flor-647 conjugated secondary antibody (Life Technologies [Thermo Fisher Scientific]) and DAPI at room temperature for 1 hour. Cells were then washed 3 times with PBS and plates were sealed for imaging. αSMA staining was imaged by excitation at 630 nm and emission at 665 nm and quantified using the Compartmental Analysis program on the CellInsight CX5 (Thermo Scientific). Dead or apoptotic cells were excluded from analysis based on positive SYTOX green staining. % of total cells positive for αSMA were counted in each well and normalized to the average of 11 wells treated with TGF-β1 on the same plate using Dotmatics' Studies Software. The normalized averages (fold change over untreated) of 3 replicate wells for each compound concentration were used to create dose-responses curves and EC50 values were calculated using non-linear regression curve fit in the Dotmatics' Studies Software. The EC50 values are reported.

Cc1ccc(-c2nccc3[nH]c(-c4n[nH]c5ncc(-c6cncc(NC(=O)C(C)C)c6)cc45)nc23)s1 [Compound 347, N-(5-(3-(4-(5-Methylthiophen-2-yl)-1H-imidazo[4,5-c]pyridin-2-yl)-1H-pyrazolo[3,4-b]pyridin-5-yl)pyridin-3-yl)isobutyramide]
IC50 [1]: 20.8 nM
EC50 [2]: 633 nM

Cc1ccc(-c2nccc3[nH]c(-c4n[nH]c5ncc(-c6cncc(CN7CCCCC7)c6)cc45)nc23)s1 [Compound 353, 3-(4-(5-Methylthiophen-2-yl)-1H-imidazo[4,5-c]pyridin-2-yl)-5-(5-(piperidin-1-ylmethyl)pyridin-3-yl)-1H-pyrazolo[3,4-b]pyridine]
IC50 [1]: 576 nM
EC50 [2]: 9 nM

Cc1ccc(-c2nccc3[nH]c(-c4n[nH]c5ncc(-c6cncc(NC(=O)C7CCCC7)c6)cc45)nc23)s1 [Compound 359, N-(5-(3-(4-(5-Methylthiophen-2-yl)-1H-imidazo[4,5-c]pyridin-2-yl)-1H-pyrazolo[3,4-b]pyridin-5-yl)pyridin-3-yl)cyclopentanecarboxamide]
IC50 [1]: 29.9 nM
EC50 [2]: 4850 nM

CC(=O)c1ccc(-c2nccc3[nH]c(-c4n[nH]c5ncc(-c6cncc(NC(=O)Cc7ccccc7)c6)cc45)nc23)s1 [Compound 374, N-(5-(3-(4-(5-Acetylthiophen-2-yl)-1H-imidazo[4,5-c]pyridin-2-yl)-1H-pyrazolo[3,4-b]pyridin-5-yl)pyridin-3-yl)-2-phenylacetamide]
IC50 [1]: > 10000 nM
EC50 [2]: 427 nM

CC(=O)c1ccc(-c2nccc3[nH]c(-c4n[nH]c5ncc(-c6cncc(NC(=O)C7CCCCC7)c6)cc45)nc23)s1 [Compound 386, N-(5-(3-(4-(5-Acetylthiophen-2-yl)-1H-imidazo[4,5-c]pyridin-2-yl)-1H-pyrazolo[3,4-b]pyridin-5-yl)pyridin-3-yl)cyclohexanecarboxamide]
IC50 [1]: 188 nM
EC50 [2]: 53 nM

CS(=O)(=O)NCc1cc(F)cc(-c2nccc3[nH]c(-c4n[nH]c5ncc(-c6cncc(NC(=O)c7ccccc7)c6)cc45)nc23)c1 [Compound 401, N-(5-(3-(4-(3-Fluoro-5-(methylsulfonamidomethyl)phenyl)-1H-imidazo[4,5-c]pyridin-2-yl)-1H-pyrazolo[3,4-b]pyridin-5-yl)pyridin-3-yl)benzamide]
IC50 [1]: > 10000 nM
EC50 [2]: ≥ 9990 nM

CS(=O)(=O)NCc1cc(F)cc(-c2nccc3[nH]c(-c4n[nH]c5ncc(-c6cncnc6)cc45)nc23)c1 [Compound 416, N-(3-Fluoro-5-(2-(5-(pyrimidin-5-yl)-1H-pyrazolo[3,4-b]pyridin-3-yl)-1H-imidazo[4,5-c]pyridin-4-yl)benzyl)methanesulfonamide]
IC50 [1]: > 10000 nM
EC50 [2]: ≥ 9990 nM

CCCCC(=O)Nc1cncc(-c2cnc3[nH]nc(-c4nc5c(-c6cc(F)cc(NCCN(C)C)c6)nccc5[nH]4)c3c2)c1 [Compound 434, N-(5-(3-(4-(3-((2-(Dimethylamino)ethyl)amino)-5-fluorophenyl)-1H-imidazo[4,5-c]pyridin-2-yl)-1H-pyrazolo[3,4-b]pyridin-5-yl)pyridin-3-yl)pentanamide]
IC50 [1]: 21.9 nM
EC50 [2]: 13 nM

CN(C)CCNc1cc(F)cc(-c2nccc3[nH]c(-c4n[nH]c5ncc(-c6cncc(CNCC7CCCC7)c6)cc45)nc23)c1 [Compound 440, N^1-(3-(2-(5-(5-(((Cyclopentylmethyl)amino)methyl)pyridin-3-yl)-1H-pyrazolo[3,4-b]pyridin-3-yl)-1H-imidazo[4,5-c]pyridin-4-yl)-5-fluorophenyl)-N^2,N^2-dimethylethane-1,2-diamine]
IC50 [1]: 752 nM
EC50 [2]: 858 nM

Fc1cccc(-c2nccc3[nH]c(-c4n[nH]c5ncc(C6CCNCC6)cc45)nc23)c1 [Compound 885, 3-(4-(3-Fluorophenyl)-1H-imidazo[4,5-c]pyridin-2-yl)-5-(piperidin-4-yl)-1H-pyrazolo[3,4-b]pyridine]
IC50 [1]: 3860 nM
EC50 [2]: 9 nM

Fc1cccc(-c2nccc3[nH]c(-c4n[nH]c5ncc(-c6cn[nH]c6)cc45)nc23)c1 [Compound 887, 3-(4-(3-Fluorophenyl)-1H-imidazo[4,5-c]pyridin-2-yl)-5-(1H-pyrazol-4-yl)-1H-pyrazolo[3,4-b]pyridine]
IC50 [1]: 6 nM
EC50 [2]: 10 nM

NC1CN(c2cncc(-c3cnc4[nH]nc(-c5nc6c(-c7cccc(F)c7)nccc6[nH]5)c4c3)n2)C1 [Compound 890, 1-(6-(3-(4-(3-Fluorophenyl)-1H-imidazo[4,5-c]pyridin-2-yl)-1H-pyrazolo[3,4-b]pyridin-5-yl)pyrazin-2-yl)azetidin-3-amine]
IC50 [1]: 365 nM
EC50 [2]: 205 nM

Fc1cccc(-c2nccc3[nH]c(-c4n[nH]c5ncc(-c6cncc(OC7CCNCC7)c6)cc45)nc23)c1 [Compound 892, 3-(4-(3-Fluorophenyl)-1H-imidazo[4,5-c]pyridin-2-yl)-5-(5-(piperidin-4-yloxy)pyridin-3-yl)-1H-pyrazolo[3,4-b]pyridine]
IC50 [1]: 315 nM
EC50 [2]: 9 nM

O=C(CC1CCNCC1)Nc1cncc(-c2cnc3[nH]nc(-c4nc5c(-c6cccc(F)c6)nccc5[nH]4)c3c2)c1 [Compound 893, N-(5-(3-(4-(3-Fluorophenyl)-1H-imidazo[4,5-c]pyridin-2-yl)-1H-pyrazolo[3,4-b]pyridin-5-yl)pyridin-3-yl)-2-(piperidin-4-yl)acetamide]
IC50 [1]: 868 nM
EC50 [2]: 308 nM

CN(C)CCOc1cncc(-c2cnc3[nH]nc(-c4nc5c(-c6cccc(F)c6)nccc5[nH]4)c3c2)c1 [Compound 895, 2-((5-(3-(4-(3-Fluorophenyl)-1H-imidazo[4,5-c]pyridin-2-yl)-1H-pyrazolo[3,4-b]pyridin-5-yl)pyridin-3-yl)oxy)-N,N-dimethylethan-1-amine]
IC50 [1]: 343 nM
EC50 [2]: ≥ 9990 nM

COc1cncc(-c2cnc3[nH]nc(-c4nc5c(-c6cccc(F)c6)nccc5[nH]4)c3c2)c1 [Compound 896, 3-(4-(3-Fluorophenyl)-1H-imidazo[4,5-c]pyridin-2-yl)-5-(5-methoxypyridin-3-yl)-1H-pyrazolo[3,4-b]pyridine]
IC50 [1]: 37 nM
EC50 [2]: 108 nM

Fc1cccc(-c2nccc3[nH]c(-c4n[nH]c5ncc(-c6ccncc6)cc45)nc23)c1 [Compound 900, 3-(4-(3-Fluorophenyl)-1H-imidazo[4,5-c]pyridin-2-yl)-5-(pyridin-4-yl)-1H-pyrazolo[3,4-b]pyridine]
IC50 [1]: > 10000 nM
EC50 [2]: 9 nM

Fc1cccc(-c2nccc3[nH]c(-c4n[nH]c5ncc(-c6cnccn6)cc45)nc23)c1 [Compound 902, 3-(4-(3-Fluorophenyl)-1H-imidazo[4,5-c]pyridin-2-yl)-5-(pyrazin-2-yl)-1H-pyrazolo[3,4-b]pyridine]
IC50 [1]: 705 nM
EC50 [2]: 9 nM

CN(C)CC(=O)Nc1cncc(-c2cnc3[nH]nc(-c4nc5c(-c6cccc(F)c6)nccc5[nH]4)c3c2)c1 [Compound 1367, 2-(Dimethylamino)-N-(5-(3-(4-(3-fluorophenyl)-1H-imidazo[4,5-c]pyridin-2-yl)-1H-pyrazolo[3,4-b]pyridin-5-yl)pyridin-3-yl)acetamide]
IC50 [1]: 183 nM
EC50 [2]: 186 nM
